Among the data in ChEMBL document CHEMBL3232817, “Structural elucidation and synthesis of vialinin C, a new inhibitor of TNF-α production” (Bioorg Med Chem, 2014) are IC50 values, retold here.

SMILES strings stand for the structures.

In the experiment the test system is RBL-2H3. The experiment is described as follows: Inhibition of TNF-alpha production in rat RBL2H3 cells. It is filed as functional, cell-based.
Turning to `O=C(Oc1c(-c2ccc(O)cc2)c(O)c2oc3cc(O)c(O)cc3c2c1OC(=O)c1ccc(O)cc1)c1ccc(O)cc1`, half-maximal inhibition (IC50) was put at 890 nM.
The compound `O=C(Oc1c(OC(=O)c2ccc(O)cc2)c(-c2ccc(O)cc2)c(O)c(O)c1-c1ccc(O)cc1)c1ccc(O)cc1` registered an IC50 of 3.5 nM. This IC50 is about 250-fold lower than that of the compound before.
Under `O=C(Cc1ccccc1)Oc1c(OC(=O)Cc2ccccc2)c(-c2ccc(O)cc2)c(O)c(O)c1-c1ccc(O)cc1` [VIALININ A] stands 0.25 nM; under `O=C(Cc1ccccc1)Oc1c(-c2ccc(O)cc2)c(O)c2oc3cc(O)c(O)cc3c2c1OC(=O)Cc1ccccc1` [VIALININ B], 0.05 nM.
